# Measurements from PMC7795729 (International Journal of Molecular Sciences, 2020).
# Key:
# MCF-7 cells [1] = test: Analysis of drug interactions (Chou-Talalay, CompuSyn); assay type: cell-based, human; details: n = 3
# Method: To quantify the interaction of Tacrine and MAP in the conjugate, the dose-effect curves were estimated by the unified theory, introduced by Chou and Talalay using CompuSyn software (ComboSyn, Inc., New York, NY, USA). The dose was plotted on the y-axis as a function of effect level (Fa) on the x-axis to assess the drugs’ behavior. Experiments were conducted in triplicate (n = 3) with three replications.
# SH-SY5Y cells = test: Cell count analysis (Lionheart FX), SH-SY5Y cells; assay type: cell-based, human; details: SH-SY5Y, 1, 2.5, 5 and 10 µM, 24 h incubation, n = 1
# MCF-7 cells [2] = test: Cell morphology visualization (phase contrast, Lionheart FX), MCF-7 cells; assay type: cell-based, human; details: 24 h incubation; Tacrine all concentrations tested; MAP 5, 10, 20 and 25 μM; conjugate higher concentrations
# Method: (§1) For cytotoxicity evaluation, MCF-7 cells were seeded in 48-well plates at a density of 25 × 10^4 cells per well in a final volume of 250 µL of culture medium. Cells were given 24 h to attach before they were incubated with the compounds in the study. […] H2O and DMSO were used in control, with the volume added being the one used for each concentration.
# (§2) After the treatments, cell morphology and growth were assessed by the contrast phase microscope Lionheart FX (Biotech, VT, USA) with the use of Gen5 software (Biotech, USA). The cell count of MCF-7 cells was assessed by Lionheart FX (Biotech, USA) using Gen5 software (Biotech, USA).
# [3] = system: SH-SY5Y (neuroblastoma) cells; test: MTT reduction assay, SH-SY5Y cells; assay type: cell-based, human
# Method: (§3) MCF-7 cells and SH-SY5Y cells were maintained in a culture flask (25 cm^2) with full growth medium DMEM supplemented with 10% FBS and penicillin and streptomycin (final concentration of 100 U/mL and 0.1 mg/mL, respectively) were kept in an incubator at 37 °C and 5% CO2. In the culture flask, the medium was changed at least twice a week, while trypsinization was done at least once a week. Trypsinization was made when there was more than 80% confluence of the monolayer and cell passages used were lower than 35.
# Cells were given 24 h to attach before they were incubated with the compounds in the study. The cells were treated with different concentrations (1, 2.5, 5, and 10 µM) of Tacrine, MAP, and Tacrine-MAP for 24 h with a final volume per well of 200 μL of complete medium. H2O and DMSO were used in control, with the volume added being the one used for each concentration. After the period of incubation, the MTT reduction was performed in both cell lines.
# The MTT assay can be used to assess the cell’s metabolic activity. […] Only viable cells can metabolize MTT, so the metabolic activity is proportional to the quantity of formazans produced). […] The absorbance was read at 570 nm in a microplate reader (BioTeK Model Synergy HT, Winooski, VT, USA). Results were expressed as percentage of control cells.
# [4] = system: MCF-7 (breast cancer) cells; details: for IC50: read-out: IC50, MCF-7 cell viability, MTT, dose-response 1, 2.5, 5, 10, 20 and 25 µM, 24 h, triplicates, n = 3
# Method: as §3, §1
# The MTT assay can be used to assess the cell’s metabolic activity. MTT, a water-soluble compound, is reduced by the complex II of the mitochondrial respiratory chain to a water-insoluble blue formazan product. Only viable cells can metabolize MTT, so the metabolic activity is proportional to the quantity of formazans produced). After a 24 h incubation with the compounds in the study at 37 °C with 5% CO2, the cells were retrieved from the incubator and the medium was discarded. A previously warmed medium with MTT (0.5 mg/mL) was added (200 μL per well) and cells were maintained for 3 h at 37 °C and 5% CO2. Then the medium was aspirated again and DMSO (200 μL) was added to cause cellular lysis and solubilize the formazan crystals. The complete dissolution of the crystals was obtained by putting the plates on a shaking platform for 15 min, protected from light. The absorbance was read at 570 nm in a microplate reader (BioTeK Model Synergy HT, Winooski, VT, USA). Results were expressed as percentage of control cells.
# MCF-7 cells [5] = test: Cell count analysis (Lionheart FX), MCF-7 cells; assay type: cell-based, human; details: 24 h incubation, n = 1
# Method: as §1, §2
# [6] = target: T1, acetylcholinesterase (AChE from the electric eel) (Electrophorus electricus, UniProt O42275); test: AChE in vitro inhibition assay (Ellman's method); assay type: biochemical
# T1 construct: purchased Sigma-Aldrich
# Method: Apart from its main function, this enzyme can efficiently hydrolyze a sulfur analogue of acetylcholine–acetylthiocholine. The products of this reaction are acetate and thiocholine, with the latter reacting with the highly reactive DNTB ion, generating a 5-thio-2-nitrobenzoate anion that has a yellow color and it can be detected by measuring the increase of absorbance at 412 nm. 3 mL of assay medium (phosphate buffer pH 7.4 + 150 µL DNTB 0.01 M + 30 µL AChE 2.0 units/mL) was put into cuvettes. The positive control was incubated at 37 °C for 15 min and then was added 150 µL of substrate (acetylthiocholine 0.01 M). […] After the addition of substrate to the assay medium, it was measured the increase in absorbance at 412 nm for 30 s intervals for 5 min (300 s) at 37 °C.
# The absorbance was measured in the JENWAY 6300 Spectrophotometer. All conditions were made in triplicates. The value of the initial absorbance was subtracted to the value of the absorbance at 300 s and that was considered as the biological activity.
# [7] = cellular uptake kinetics; cited from earlier work
# Description: In view of the above, we decided to explore how the coupling of Tacrine with the cell-penetrating peptide (CPP) MAP might enhance its anti-cancer effect. CPPs are considered versatile carriers due to their unique ability to transport a wide range of molecules such as proteins, nucleic acids, contrast agents, drugs, and promote their intracellular delivery with limited toxicity. […] MAP (named after “model amphipathic peptide”) is an artificial ...
# [8] = system: breast tumor cells (MCF-7); details: cited from earlier work
# Description: Drug combination is a strategy increasingly used in oncology because it allows taking advantage of the maximum therapeutic effect of two or more drugs, by combining different mechanisms of action, while reducing required doses and, consequently, side effects. Drug repurposing is another strategy that allows overcoming the disadvantages of the traditional development of novel anticancer drugs, by searching for new therapeutic uses for drugs already approved for other indications. This allows the reduction of costs related to the development of new drugs while promoting a faster route towards th ...
# [9] = summary statement of the abstract
# T1 sequence (O42275 24-633): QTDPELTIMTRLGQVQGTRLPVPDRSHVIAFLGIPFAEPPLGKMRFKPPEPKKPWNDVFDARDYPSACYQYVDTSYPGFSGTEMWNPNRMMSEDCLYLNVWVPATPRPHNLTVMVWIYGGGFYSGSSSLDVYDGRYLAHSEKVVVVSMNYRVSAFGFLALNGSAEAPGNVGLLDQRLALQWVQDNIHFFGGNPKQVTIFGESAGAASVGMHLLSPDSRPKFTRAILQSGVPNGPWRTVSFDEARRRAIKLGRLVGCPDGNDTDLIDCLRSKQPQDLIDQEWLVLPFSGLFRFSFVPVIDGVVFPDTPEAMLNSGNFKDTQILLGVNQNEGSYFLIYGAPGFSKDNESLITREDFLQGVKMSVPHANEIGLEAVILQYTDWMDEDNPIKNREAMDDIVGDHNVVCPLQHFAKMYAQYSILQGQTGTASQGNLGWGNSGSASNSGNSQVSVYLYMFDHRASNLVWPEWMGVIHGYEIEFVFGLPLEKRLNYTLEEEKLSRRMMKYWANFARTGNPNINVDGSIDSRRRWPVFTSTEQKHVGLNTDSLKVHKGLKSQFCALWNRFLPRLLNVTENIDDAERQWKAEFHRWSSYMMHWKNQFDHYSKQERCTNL
Structure (SMILES),Drug interaction of MAP and Tacrine in decreasing cell viability (MCF-7 cells [1]; higher doses),Drug interaction of MAP and Tacrine in decreasing cell viability (MCF-7 cells [1]; lower doses of drug and peptide),Cell count (in words) (SH-SY5Y cells),Morphological changes of MCF-7 cells vs control (in words) (MCF-7 cells [2]),"Toxicity to SH-SY5Y cells (in words) [3, 9]",IC50 [4] [µM],"Toxicity to MCF-7 cells (in words) [4, 9]","Cell count (in words) (MCF-7 cells [5]; MCF-7, 1, 2.5, 5 and 10 µM)","Cell count (in words) (MCF-7 cells [5]; MCF-7, 20 and 25 µM)",IC50 [6] [µM],Cellular uptake among several CPP (in words) [7],"Activity on MCF-7 cells (in words) ([8]; 50 µM, alone)",Cytotoxicity against MCF-7 cells in combination with 5-FU (in words) ([8]; combination with 5-Fluorouracil),"MTT reduction compared to control (in words) ([3]; SH-SY5Y, 1, 2.5, 5 and 10 µM, 24 h incubation)","MTT reduction compared to control (in words) ([4]; MCF-7, 1, 2.5, 5 and 10 µM, 24 h incubation)"
CC(C)C[C@H](NC(=O)[C@H](C)NC(=O)[C@H](CCCCN)NC(=O)[C@H](CC(C)C)NC(=O)[C@H](C)NC(=O)[C@H](CC(C)C)NC(=O)[C@H](CCCCN)NC(=O)[C@H](CC(C)C)NC(=O)[C@H](C)NC(=O)[C@H](CC(C)C)NC(=O)[C@H](CCCCN)NC(=O)[C@@H](N)Cc1cn(CC(=O)Nc2c3c(nc4ccccc24)CCCC3)nn1)C(=O)N[C@@H](CCCCN)C(=O)N[C@@H](C)C(=O)N[C@@H](C)C(=O)N[C@@H](CC(C)C)C(=O)N[C@@H](CCCCN)C(=O)N[C@@H](CC(C)C)C(=O)N[C@@H](C)C(N)=O [MAP-Tacrine conjugate],additive effect,synergistic effect,significantly decreased cell count,cell damage observed was similar to that caused by MAP alone,highly toxic,2.73,highly toxic,significantly decreased cell count,severe drop in cell count,6.07,,,,,
CC(C)C[C@H](NC(=O)[C@H](C)NC(=O)[C@H](CCCCN)NC(=O)[C@H](CC(C)C)NC(=O)[C@H](C)NC(=O)[C@H](CC(C)C)NC(=O)[C@H](CCCCN)NC(=O)[C@H](CC(C)C)NC(=O)[C@H](C)NC(=O)[C@H](CC(C)C)NC(=O)[C@@H](N)CCCCN)C(=O)N[C@@H](CCCCN)C(=O)N[C@@H](C)C(=O)N[C@@H](C)C(=O)N[C@@H](CC(C)C)C(=O)N[C@@H](CCCCN)C(=O)N[C@@H](CC(C)C)C(=O)N[C@@H](C)C(N)=O [MAP],,,,,,2.72,,,,,fastest cellular uptake,,,,
Nc1c2c(nc3ccccc13)CCCC2 [Tacrine],,,did not affect the number of cells in culture,No significant differences in cell morphology,,,,did not affect the number of cells in culture,no significant effects,,,antiproliferative activity,increased the cytotoxicity,no significant differences,no significant differences
